Test results from publication PMC2164953, “Flexible synthesis of poison-frog alkaloids of the 5,8-disubstituted indolizidine-class. II: Synthesis of (-)-209B, (-)-231C, (-)-233D, (-)-235B", (-)-221I, and an epimer of 193E and pharmacological effects at neuronal nicotinic acetylcholine receptors” (Beilstein Journal of Organic Chemistry, 2007).
Several values for one entry are separate records, joined by “and”; a condition that tells them apart may be missing. Equal entries are not always repeated.

Experiments:
α7 nicotinic receptor = molecular target: T1, α7 nicotinic receptor (Homo sapiens, UniProt P36544); assay: Two-electrode voltage-clamp recording of ACh-induced currents in X. laevis oocytes expressing recombinant α7 nicotinic receptor; format: cell-based; conditions: for fold higher potency for blockade of α7 than of α4β2 receptor: ratio of IC50 values, α7 over α4β2
T1 construct: expressed in transfected cells; host or cells: Xenopus laevis oocytes (nuclear cDNA injection)
Procedure: (§1) Figure 1 Inhibitory effect of (-)-231C on ACh-induced currents in X. laevis oocytes expressing recombinant nicotinic receptors. Currents were recorded in the voltage-clamp mode at -60 mV. Concentrations of ACh used were 1 μM for the α4β2 receptor and 100 μM for the α7 receptor. For test responses, oocytes were preincubated with (-)-231C for 3 min and then exposed to ACh with (-)-231C. A, representative traces showing the ACh-elicited currents in the absence and presence of (-)-231C (3 μM). Horizontal bars indicate the period of perfusion with ACh for 5 s. Vertical scale bars represent 0.5 μA on the α4β2 receptor, and 0.1 μA on the α7 receptor. B, concentration-response curves for (-)-231C on recombinant nicotinic receptors. Current responses to ACh in the presence of (-)-231C in each oocyte were normalized to the ACh responses (control responses) recorded in the same oocytes. Values represent the mean ± S.E.M. for five to six separate experiments.
as §1, with “Figure 2” for “Figure 1”, “of (-)-221I” for “of (-)-231C”, “with (-)-221I” for “with (-)-231C”, “with (-)-221I.” for “with (-)-231C.”, “for (-)-221I” for “for (-)-231C”, “five” for “five to six”
as §1, with “Figure 3” for “Figure 1”, “of (-)-epi-193E” for “of (-)-231C”, “with (-)-epi-193E” for “with (-)-231C”, “with (-)-epi-193E.” for “with (-)-231C.”, “for (-)-epi-193E” for “for (-)-231C”, “five” for “five to six”
(§2) Xenopus laevis oocytes were prepared as described previously. In brief, stage V-VI oocytes were isolated and microinjected with cDNAs encoding nicotinic receptor subunit into the nucleus. The α7 subunit cDNA was injected alone, whereas the mixture of α4 and β2 subunit cDNAs was injected in a ratio of 1:1. Oocytes were cultured at 19 °C for 3-7 days. An oocyte was placed in a tube-like chamber in which Ringer’s solution (82.5 mM NaCl, 2.5 mM KCl, 2.5 mM CaCl2, 1 mM MgCl2, and 5 mM HEPES, pH 7.4) containing 1 µM atropine was perfused by gravity (15 ml/min). Current responses were recorded under two-electrode voltage-clamp method. To apply a pulse of acetylcholine (ACh) to the oocyte, the perfusion fluid was switched to solution containing ACh, using a three-way Teflon solenoid valve (Parker Hannifin Corp., General Valve Division, Fairfield, NJ) controlled by a PC computer with pClamp7 software (Axon Instruments, Union City, CA). […]

α4β2 nicotinic receptor [1] = molecular target: T2, α4β2 nicotinic receptor (Homo sapiens, UniProt P17787+P43681); assay: Two-electrode voltage-clamp recording of ACh-induced currents in X. laevis oocytes expressing recombinant α4β2 nicotinic receptor; format: cell-based
T2 construct: expressed in transfected cells; host or cells: Xenopus laevis oocytes (nuclear cDNA injection)
Procedure: as §1
as §1, with “Figure 2” for “Figure 1”, “of (-)-221I” for “of (-)-231C”, “with (-)-221I” for “with (-)-231C”, “with (-)-221I.” for “with (-)-231C.”, “for (-)-221I” for “for (-)-231C”, “five” for “five to six”
as §1, with “Figure 3” for “Figure 1”, “of (-)-epi-193E” for “of (-)-231C”, “with (-)-epi-193E” for “with (-)-231C”, “with (-)-epi-193E.” for “with (-)-231C.”, “for (-)-epi-193E” for “for (-)-231C”, “five” for “five to six”
as §2

[2] = tested on: nicotinic acetylcholine receptors; parameters: method as in PMID 1815137; conditions: cited from earlier work
α4β2 nicotinic receptor [3] = molecular target: T2, α4β2 nicotinic receptor; parameters: method as in PMID 15258256; conditions: cited from earlier work

T1 sequence (P36544 23-502): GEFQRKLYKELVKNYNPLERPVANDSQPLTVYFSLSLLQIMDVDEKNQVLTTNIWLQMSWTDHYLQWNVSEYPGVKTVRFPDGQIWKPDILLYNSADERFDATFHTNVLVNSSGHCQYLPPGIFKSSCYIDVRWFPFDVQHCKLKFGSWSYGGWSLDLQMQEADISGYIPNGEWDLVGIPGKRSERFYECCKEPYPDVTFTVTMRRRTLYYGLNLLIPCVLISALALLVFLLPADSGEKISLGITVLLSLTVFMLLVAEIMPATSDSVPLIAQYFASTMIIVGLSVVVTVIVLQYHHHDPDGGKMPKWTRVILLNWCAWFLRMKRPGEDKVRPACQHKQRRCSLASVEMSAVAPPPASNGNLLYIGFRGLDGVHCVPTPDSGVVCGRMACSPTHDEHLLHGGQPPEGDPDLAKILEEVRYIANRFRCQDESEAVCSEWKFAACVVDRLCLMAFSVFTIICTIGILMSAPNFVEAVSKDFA
T2 sequence (P43681 29-627 limits assumed): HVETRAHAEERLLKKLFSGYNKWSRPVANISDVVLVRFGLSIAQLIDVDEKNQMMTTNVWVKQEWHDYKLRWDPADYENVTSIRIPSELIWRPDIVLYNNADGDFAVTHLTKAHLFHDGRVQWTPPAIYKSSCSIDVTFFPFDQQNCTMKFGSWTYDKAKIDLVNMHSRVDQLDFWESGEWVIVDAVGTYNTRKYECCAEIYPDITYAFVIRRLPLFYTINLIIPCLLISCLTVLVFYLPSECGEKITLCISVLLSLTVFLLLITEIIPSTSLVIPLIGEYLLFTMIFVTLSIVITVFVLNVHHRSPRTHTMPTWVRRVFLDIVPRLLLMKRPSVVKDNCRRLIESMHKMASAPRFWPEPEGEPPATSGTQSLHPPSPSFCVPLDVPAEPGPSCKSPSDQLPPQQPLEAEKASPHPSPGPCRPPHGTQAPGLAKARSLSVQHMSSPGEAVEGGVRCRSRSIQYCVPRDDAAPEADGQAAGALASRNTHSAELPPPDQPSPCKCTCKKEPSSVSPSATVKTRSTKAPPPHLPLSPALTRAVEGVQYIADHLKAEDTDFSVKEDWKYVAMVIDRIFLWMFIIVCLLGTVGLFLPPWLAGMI
T2 sequence (P17787 26-502): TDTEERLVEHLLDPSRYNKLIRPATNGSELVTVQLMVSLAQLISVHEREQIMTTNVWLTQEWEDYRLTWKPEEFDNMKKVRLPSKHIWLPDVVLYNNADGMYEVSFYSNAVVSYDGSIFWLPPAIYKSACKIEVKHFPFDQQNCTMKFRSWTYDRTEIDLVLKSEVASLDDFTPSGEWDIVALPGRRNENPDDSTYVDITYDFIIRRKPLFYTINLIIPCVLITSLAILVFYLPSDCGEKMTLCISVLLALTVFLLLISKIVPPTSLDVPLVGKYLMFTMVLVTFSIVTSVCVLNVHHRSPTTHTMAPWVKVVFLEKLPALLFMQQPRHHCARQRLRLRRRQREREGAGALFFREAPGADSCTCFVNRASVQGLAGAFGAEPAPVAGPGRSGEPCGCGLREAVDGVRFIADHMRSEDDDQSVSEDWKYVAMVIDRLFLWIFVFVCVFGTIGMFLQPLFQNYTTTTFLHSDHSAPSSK

SMILES | IC50 (α7 nicotinic receptor) [µM] | fold higher potency for blockade of α7 than of α4β2 receptor (α7 nicotinic receptor) [fold] | IC50 (α4β2 nicotinic receptor [1]) [µM] | mode of action at nicotinic receptors [2] | further results
CCC=CCC1CCC(CC)C2CCCN12 (single isomer, unassigned; (-)) [(-)-221I] | 4.4 | 5.3 | 23.1 | – | –
C=CCC1CCC(CC)C2CCCN12 (single isomer, unassigned; (-)) [(-)-epi-193E] | 9.1 | 2.0 | 18 | – | –
CCCCC[C@@H]1CC[C@@H](C)[C@@H]2CCCN12 [(-)-209B, (5S,8R,9S)-(-)-8-Methyl-5-pentyloctahydroindolizine] | – | – | – | noncompetitive nicotinic blockers | –
C#C/C=C\CCC[C@@H]1CC[C@@H](C)[C@@H]2CCCN12 [(-)-231C, (5R,8R,9S)-(-)-5-Hept-4-en-6-ynyl-8-methyloctahydroindolizine] | 10.7 | – | 1.5 | – | ACh-elicited responses (α7 nicotinic receptor; 3 μM compound, oocytes expressing α7 receptor): not strongly affected; peak amplitude of ACh-elicited currents (α4β2 nicotinic receptor [1]; 3 μM compound, oocytes expressing α4β2 receptor): greatly decreased; fold higher sensitivity/potency for blockade of α4β2 than of α7 receptor (α4β2 nicotinic receptor [1]; ratio of IC50 values, α4β2 over α7): 7.0 fold and 6- to 7 fold
CC/C=C\CCC[C@@H]1CC[C@@H](C)[C@@H]2CCCN12 [(-)-235B", (5R,8R,9S)-(-)-5-Hept-4-enyl-8-methyloctahydroindolizine] | – | – | – | noncompetitive nicotinic blockers | selectivity for blockade of α4β2 over α7 receptor (α4β2 nicotinic receptor [3]; previous data): 6- to 7 fold; effect at the α4β2 nicotinic receptor (α4β2 nicotinic receptor [3]; several nicotinic receptor subtypes tested): selective and potent blocking effects; potency at α4β2 receptor compared with dihydro-β-erythroidine (α4β2 nicotinic receptor [3]; versus classical α4β2 competitive antagonist): comparable; potency in blocking the α4β2 receptor relative to (-)-231C (α4β2 nicotinic receptor [1]; fold greater than (-)-231C, previous (ref 3) versus present data): approximately 20 fold
